Legend:
Hepatitis C virus [1] = experiment: Antiviral activity against Hepatitis C virus genotype 1b Con1 infected in human HuH7 cells assessed as GAPDH RNA or 18S rRNA level after 3 days selected with 40 nM HCV-796 and 800 nM boceprevir by qRT-PCR analysis relative to control; assay type: functional, organism-based, Hepacivirus hominis, Huh-7
Hepatitis C virus [2] = experiment: Antiviral activity against Hepatitis C virus genotype 1b Con1 infected in human HuH7 cells assessed as GAPDH RNA or 18S rRNA level after 3 days selected with 40 nM HCV-796 and 800 nM boceprevir by qRT-PCR analysis; assay type: functional, organism-based, Hepacivirus hominis; settings: Con1, Huh-7, 72 h
Hepatitis C virus [3] = experiment: Antiviral activity against Hepatitis C virus genotype 1b Con1 infected in human HuH7 cells assessed as GAPDH RNA or 18S rRNA level after 3 days by qRT-PCR analysis; assay type: functional, organism-based, Hepacivirus hominis; settings: Con1, Huh-7, 72 h
Hepatitis C virus [4] = experiment: Antiviral activity against Hepatitis C virus genotype 1b Con1 harboring C316Y and C445F mutations mutant infected in human HuH7.5 cells after 72 hrs by gaussia luciferase reporter assay relative to control; assay type: functional, Hepacivirus hominis, Huh-7
Hepatitis C virus [5] = experiment: Antiviral activity against Hepatitis C virus genotype 1b Con1 harboring V170A and C316Y mutations mutant infected in human HuH7.5 cells after 72 hrs by gaussia luciferase reporter assay relative to control; assay type: functional, Hepacivirus hominis, Huh-7
Hepatitis C virus [6] = experiment: Antiviral activity against Hepatitis C virus genotype 1b Con1 harboring NS5B C445F mutant infected in human HuH7.5 cells after 72 hrs by gaussia luciferase reporter assay relative to control; assay type: functional, Hepacivirus hominis, Huh-7
Hepatitis C virus [7] = experiment: Antiviral activity against Hepatitis C virus genotype 1b Con1 harboring NS5B I424V mutant infected in human HuH7.5 cells after 72 hrs by gaussia luciferase reporter assay relative to control; assay type: functional, Hepacivirus hominis, Huh-7
Hepatitis C virus [8] = experiment: Antiviral activity against Hepatitis C virus genotype 1b Con1 harboring NS5B C316Y mutant infected in human HuH7.5 cells after 72 hrs by gaussia luciferase reporter assay relative to control; assay type: functional, Hepacivirus hominis, Huh-7
Hepatitis C virus [9] = experiment: Antiviral activity against Hepatitis C virus genotype 1b Con1 harboring NS3 K583T mutant infected in human HuH7.5 cells after 72 hrs by gaussia luciferase reporter assay relative to control; assay type: functional, Hepacivirus hominis, Huh-7
Hepatitis C virus [10] = experiment: Antiviral activity against Hepatitis C virus genotype 1b Con1 harboring NS3 G282S mutant infected in human HuH7.5 cells after 72 hrs by gaussia luciferase reporter assay relative to control; assay type: functional, Hepacivirus hominis, Huh-7
Hepatitis C virus [11] = experiment: Antiviral activity against Hepatitis C virus genotype 1b Con1 harboring NS3 E176G mutant infected in human HuH7.5 cells after 72 hrs by gaussia luciferase reporter assay relative to control; assay type: functional, Hepacivirus hominis, Huh-7
Hepatitis C virus [12] = experiment: Antiviral activity against Hepatitis C virus genotype 1b Con1 harboring NS3 V170A mutant infected in human HuH7.5 cells after 72 hrs by gaussia luciferase reporter assay relative to control; assay type: functional, Hepacivirus hominis, Huh-7
Hepatitis C virus [13] = experiment: Antiviral activity against Hepatitis C virus genotype 1b Con1 harboring NS3 V158M mutant infected in human HuH7.5 cells after 72 hrs by gaussia luciferase reporter assay relative to control; assay type: functional, Hepacivirus hominis, Huh-7
Hepatitis C virus [14] = experiment: Antiviral activity against Hepatitis C virus genotype 1b Con1 infected in human HuH7.5 cells after 72 hrs by gaussia luciferase reporter assay; assay type: functional, organism-based, Hepacivirus hominis; settings: Con1, Huh-7, 72 h
Hepatitis C virus [15] = experiment: Antiviral activity against Hepatitis C virus genotype 1b Con1 infected in human HuH7 cells assessed as GAPDH RNA or 18S rRNA level after 3 days selected with […] and 400 nM boceprevir by qRT-PCR analysis relative to control; assay type: functional, Hepacivirus hominis, Huh-7
Hepatitis C virus [16] = experiment: Antiviral activity against Hepatitis C virus genotype 1b Con1 infected in human HuH7 cells assessed as GAPDH RNA or 18S rRNA level after 3 days selected with […] and 400 nM boceprevir by qRT-PCR analysis; assay type: functional, organism-based, Hepacivirus hominis; settings: Con1, Huh-7, 72 h
Hepatitis C virus [17] = experiment: Antiviral activity against Hepatitis C virus genotype 1b Con1 harboring NS3 V158M mutant infected in human HuH7.5 cells after 72 hrs by gaussia luciferase reporter assay; assay type: functional, organism-based, Hepacivirus hominis; settings: Con1, Huh-7, 72 h
Hepatitis C virus [18] = experiment: Antiviral activity against Hepatitis C virus genotype 1b Con1 harboring NS3 V170A mutant infected in human HuH7.5 cells after 72 hrs by gaussia luciferase reporter assay; assay type: functional, organism-based, Hepacivirus hominis; settings: Con1, Huh-7, 72 h
Hepatitis C virus [19] = experiment: Antiviral activity against Hepatitis C virus genotype 1b Con1 harboring NS3 E176G mutant infected in human HuH7.5 cells after 72 hrs by gaussia luciferase reporter assay; assay type: functional, organism-based, Hepacivirus hominis; settings: Con1, Huh-7, 72 h
Hepatitis C virus [20] = experiment: Antiviral activity against Hepatitis C virus genotype 1b Con1 harboring NS3 G282S mutant infected in human HuH7.5 cells after 72 hrs by gaussia luciferase reporter assay; assay type: functional, organism-based, Hepacivirus hominis; settings: Con1, Huh-7, 72 h
Hepatitis C virus [21] = experiment: Antiviral activity against Hepatitis C virus genotype 1b Con1 harboring NS3 K583T mutant infected in human HuH7.5 cells after 72 hrs by gaussia luciferase reporter assay; assay type: functional, organism-based, Hepacivirus hominis; settings: Con1, Huh-7, 72 h
Hepatitis C virus [22] = experiment: Antiviral activity against Hepatitis C virus genotype 1b Con1 harboring NS5B C316Y mutant infected in human HuH7.5 cells after 72 hrs by gaussia luciferase reporter assay; assay type: functional, organism-based, Hepacivirus hominis; settings: Con1, Huh-7, 72 h
Hepatitis C virus [23] = experiment: Antiviral activity against Hepatitis C virus genotype 1b Con1 harboring NS5B I424V mutant infected in human HuH7.5 cells after 72 hrs by gaussia luciferase reporter assay; assay type: functional, organism-based, Hepacivirus hominis; settings: Con1, Huh-7, 72 h
Hepatitis C virus [24] = experiment: Antiviral activity against Hepatitis C virus genotype 1b Con1 harboring NS5B C445F mutant infected in human HuH7.5 cells after 72 hrs by gaussia luciferase reporter assay; assay type: functional, organism-based, Hepacivirus hominis; settings: Con1, Huh-7, 72 h
Hepatitis C virus [25] = experiment: Antiviral activity against Hepatitis C virus genotype 1b Con1 harboring V170A and C316Y mutations mutant infected in human HuH7.5 cells after 72 hrs by gaussia luciferase reporter assay; assay type: functional, organism-based, Hepacivirus hominis; settings: Con1, Huh-7, 72 h
Hepatitis C virus [26] = experiment: Antiviral activity against Hepatitis C virus genotype 1b Con1 harboring C316Y and C445F mutations mutant infected in human HuH7.5 cells after 72 hrs by gaussia luciferase reporter assay; assay type: functional, organism-based, Hepacivirus hominis; settings: Con1, Huh-7, 72 h

With `CC(=O)c1cc(F)c(Cl)cc1NCC(=O)Nc1ccccc1C(=O)O` the “Ratio IC50” value (Hepatitis C virus [1]) was >15, the EC50 (Hepatitis C virus [2]) was > 20000 nM and the EC50 (Hepatitis C virus [3]) was 1310 nM.

`CC(=O)c1cc(F)c(Br)cc1NCC(=O)Nc1ccccc1C(=O)O` was tested, and the EC50 (Hepatitis C virus [1]; Hepatitis C virus, Con1, Huh-7, 72 h) was > 30 nM, the EC50 (Hepatitis C virus [2]) was > 15000 nM and the EC50 (Hepatitis C virus [3]) was 499 nM.

`CCC[C@]1(CC(=O)O)OCCc2c1[nH]c1c(C)ccc(C#N)c21` was tested, and the “Ratio IC50” value (Hepatitis C virus [1]) was 2 and the EC50 (Hepatitis C virus [2]) was 7840 nM.

For `C[C@@]1(O)[C@H](O)[C@@H](CO)O[C@H]1n1ccc(N)nc1=O`, the “Ratio IC50” value (Hepatitis C virus [1]) was 1, the EC50 (Hepatitis C virus [2]) was 1620 nM and the EC50 (Hepatitis C virus [3]) was 1140 nM.

In the case of `CO[C@H]1/C=C\C=C(/C)C(=O)NC2=CC(=O)C(NCCN(C)C)=C(C[C@@H](C)C[C@H](OC)[C@H](O)[C@@H](C)/C=C(\C)[C@@H]1OC(N)=O)C2=O` [ALVESPIMYCIN], the “Ratio IC50” value (Hepatitis C virus [1]) is reported as 3, the EC50 (Hepatitis C virus [2]) is reported as 3.1 nM and the EC50 (Hepatitis C virus [3]) is reported as 1.2 nM.

`CC(C)(C)NC(=O)N[C@H](C(=O)N1C[C@H]2[C@@H]([C@H]1C(=O)NC(CC1CCC1)C(=O)C(N)=O)C2(C)C)C(C)(C)C` (some centres undefined) [BOCEPREVIR] was tested, and the “Ratio IC50” value (Hepatitis C virus [4]) was 1, the “Ratio IC50” value (Hepatitis C virus [5]) was 7 and the “Ratio IC50” value (Hepatitis C virus [6]) was 1. The “Ratio IC50” value (Hepatitis C virus [7]) was 1, the “Ratio IC50” value (Hepatitis C virus [8]) was 1 and the “Ratio IC50” value (Hepatitis C virus [9]) was 1. For the same compound, the “Ratio IC50” value (Hepatitis C virus [10]) was 3, the “Ratio IC50” value (Hepatitis C virus [11]) was 4 and the “Ratio IC50” value (Hepatitis C virus [12]) was 5. The “Ratio IC50” value (Hepatitis C virus [13]) was 1, the EC50 (Hepatitis C virus [14]) was 608 nM and the “Ratio IC50” value (Hepatitis C virus [1]) was 10. For the same compound, the EC50 (Hepatitis C virus [2]) was 1580 nM, the “Ratio IC50” value (Hepatitis C virus [15]) was 8 and the EC50 (Hepatitis C virus [3]) was 165 nM. It also gave an EC50 (Hepatitis C virus [16]) of 1330 nM, an EC50 (Hepatitis C virus [17]) of 377 nM and an EC50 (Hepatitis C virus [18]) of 3170 nM. The EC50 (Hepatitis C virus [19]) was 2150 nM, the EC50 (Hepatitis C virus [20]) was 1940 nM and the EC50 (Hepatitis C virus [21]) was 738 nM. The EC50 (Hepatitis C virus [22]) was 781 nM, the EC50 (Hepatitis C virus [23]) was 647 nM and the EC50 (Hepatitis C virus [24]) was 795 nM. The EC50 (Hepatitis C virus [25]) was 4360 nM and the EC50 (Hepatitis C virus [26]) was 821 nM.

`COC1=C2C[C@@H](C)C[C@H](OC)[C@H](O)[C@@H](C)/C=C(\C)[C@H](OC(N)=O)[C@@H](OC)/C=C\C=C(/C)C(=O)NC(=CC1=O)C2=O` [GELDANAMYCIN] was tested, and the “Ratio IC50” value (Hepatitis C virus [1]) was 5, the EC50 (Hepatitis C virus [2]) was 1.2 nM and the EC50 (Hepatitis C virus [3]) was 0.25 nM.

For `CNC(=O)c1c(-c2ccc(F)cc2)oc2cc(N(CCO)S(C)(=O)=O)c(C3CC3)cc12` [NESBUVIR], the “Ratio IC50” value (Hepatitis C virus [4]) was 1834, the “Ratio IC50” value (Hepatitis C virus [5]) was 95 and the “Ratio IC50” value (Hepatitis C virus [6]) was 8. For the same compound, the “Ratio IC50” value (Hepatitis C virus [7]) was 1, the “Ratio IC50” value (Hepatitis C virus [8]) was 138 and the “Ratio IC50” value (Hepatitis C virus [9]) was 1. The “Ratio IC50” value (Hepatitis C virus [10]) was 2, the “Ratio IC50” value (Hepatitis C virus [11]) was 3 and the “Ratio IC50” value (Hepatitis C virus [12]) was 1. For the same compound, the “Ratio IC50” value (Hepatitis C virus [13]) was 1, the EC50 (Hepatitis C virus [14]) was 14 nM and the “Ratio IC50” value (Hepatitis C virus [1]) was 1403. The EC50 (Hepatitis C virus [2]) was 3370 nM, the “Ratio IC50” value (Hepatitis C virus [15]) was 1025 and the EC50 (Hepatitis C virus [3]) was 2.4 nM. The EC50 (Hepatitis C virus [16]) was 2460 nM, the EC50 (Hepatitis C virus [17]) was 9 nM and the EC50 (Hepatitis C virus [18]) was 13 nM. It also gave an EC50 (Hepatitis C virus [19]) of 38 nM, an EC50 (Hepatitis C virus [20]) of 22 nM and an EC50 (Hepatitis C virus [21]) of 15 nM. It also gave an EC50 (Hepatitis C virus [22]) of 1940 nM, an EC50 (Hepatitis C virus [23]) of 13 nM and an EC50 (Hepatitis C virus [24]) of 114 nM. The EC50 (Hepatitis C virus [25]) was 1340 nM and the EC50 (Hepatitis C virus [26]) was 25700 nM.

— ChEMBL document CHEMBL1687718, “Selection and characterization of hepatitis C virus replicons dually resistant to the polymerase and protease inhibitors HCV-796 and boceprevir (SCH 503034)” (Antimicrob Agents Chemother, 2009)
